Test results: article PMC2912835 (Journal of Experimental & Clinical Cancer Research : CR, 2010)

How the values were obtained:
Kit D816V mutant = biological target: T1, Kit D816V mutant (Homo sapiens, UniProt P10721, D816V); assay: Cell-based Kit autophosphorylation assay, D816V mutant; conditions: stably transfected CHO cells, up to 3000 nM
T1 construct: human wild-type KIT to yield full-length, mutant constructs; expressed in transfected cells; host or cells: AM-1/D CHO cells, stably transfected
Description: (§1) CHO cells stably transfected with wild-type or mutant isoforms of KIT were seeded in a 96-well tissue culture plate at a density of 2 × 10^4 cells per well. For stem cell factor (SCF) characterization experiments, cells were stimulated with serial dilutions of SCF for varying times. […] Cell lines transfected with activating KIT mutants were not stimulated with SCF in IC50 experiments. Cells were washed with phosphate-buffered saline and lysed in RIPA buffer (50 mM Tris, pH 7; 150 mM NaCl, 1% Igepal, 0.5% sodium deoxycholate, 0.1% SDS, 300 μM activated sodium vanadate, 1× protease inhibitor cocktail) for 30 minutes at 4°C with shaking. Cell lysates were added to a 96-well DELFIA microplate (PerkinElmer Inc.) coated with anti-Kit antibody (1 μg per well; AF332, R&D Systems, Inc.; Minneapolis, MN) and incubated for 2 hours. Lysates were then removed and the plate was washed 3 times with DELFIA wash buffer (PerkinElmer Inc.). […] The plate was then washed 3 times with DELFIA wash buffer before 0.01 μg of Eu-N1-labeled anti-mouse antibody (Cat. # AD0124, PerkinElmer Inc.) was added to each well. The plate was again incubated at room temperature for 1 hour and then washed 3 times with DELFIA wash buffer before the signal was detected by adding DELFIA enhancement buffer (PerkinElmer Inc.) to each well.

PDGFR = tested on: PDGFR; design: method as in PMID 16951187; conditions: biochemical assays; read-out: IC50, inhibition of PDGFR activity; cited from earlier work
[1] = tested on: Kit activity (hair depigmentation); assay: In vivo hair depigmentation assay (surrogate marker of Kit activity); conditions: female C57B6 mice
Description: Female C57B6 mice (6 to 8 weeks old; 20 to 30 g; Charles River Laboratories, Wilmington, MA) were anesthetized, and an area of skin 2 × 2 cm on the right flank was depilated. […] On day 21, photographs were taken for assessment of hair depigmentation. The same patch of skin was depilated again on day 28, and photographs for assessment of depigmentation were taken on day 35. All animal experimental procedures were conducted in accordance with the guidelines of the Amgen Animal Care and Use Committee and the Association for Assessment and Accreditation of Laboratory Animal Care standards.

[2] = tested on: Ba/F3 cells stably transfected with KIT V560D/V654A; assay: cells; conditions: Mus musculus, BaF3, 24 h, read-out: IC50 of Stably Transfected Ba/F3 Cell Survival
Description: (§2) The ability of Kit mutants to act as survival factors was assessed in Kit-dependent Ba/F3 cells. Ba/F3 cells stably transfected with various KIT mutants were seeded in a 96-well tissue culture plate at a density of 5 × 10^3 cells per well. […] Cell viability was assessed by measuring the level of adenosine triphosphate using ATPlite assays (PerkinElmer Life Sciences, Boston, MA). Reconstituted ATPLite 1-step solution was added to each well followed by incubation with shaking for 2 minutes. The plate was read on a Victor Model 1420 multilabel counter (PerkinElmer Inc.) under the luminescence setting.

[3] = tested on: Ba/F3 cells stably transfected with KIT Δ552-559; assay: cells; conditions: Mus musculus, BaF3, 24 h, read-out: IC50 of Stably Transfected Ba/F3 Cell Survival
Description: as §2

[4] = tested on: Ba/F3 cells stably transfected with KIT AYins503-504; assay: cells; conditions: Mus musculus, BaF3, 24 h, read-out: IC50 of Stably Transfected Ba/F3 Cell Survival
Description: as §2

[5] = tested on: Ba/F3 cells stably transfected with KIT V560D/T670I; assay: cells; conditions: Mus musculus, BaF3, 24 h, read-out: IC50 of Stably Transfected Ba/F3 Cell Survival
Description: as §2

[6] = tested on: Ba/F3 cells stably transfected with KIT V560D; assay: cells; conditions: Mus musculus, BaF3, 24 h, read-out: IC50 of Stably Transfected Ba/F3 Cell Survival
Description: as §2

[7] = tested on: Ba/F3 cells stably transfected with KIT Y823D; assay: cells; conditions: Mus musculus, BaF3, 24 h, read-out: IC50 of Stably Transfected Ba/F3 Cell Survival
Description: as §2

Kit = tested on: Kit; design: method as in PMID 16951187; conditions: biochemical assays; read-out: IC50, inhibition of Kit activity; cited from earlier work
Kit V560D/V654A mutant = biological target: T2, Kit V560D/V654A mutant (Homo sapiens, UniProt P10721, V560D/V654A); assay: Cell-based Kit autophosphorylation assay, V560D/V654A mutant; conditions: autophosphorylation IC50 […] nM versus […] nM
T2 construct: human wild-type KIT to yield full-length, mutant constructs; expressed in transfected cells; host or cells: AM-1/D CHO cells, stably transfected
Description: as §1

[8] = tested on: Kit (hair depigmentation); design: method as in PMID 12966161; conditions: mice; cited from earlier work

SMILES | Inhibition of autophosphorylation of the D816V mutant (Kit D816V mutant) | IC50 (PDGFR) [nM] | Hair depigmentation of regrown hair ([1]; 75 mg/kg oral twice daily for 21 days after depilation, assessed day 21, vs vehicle) | Hair depigmentation of regrown hair after cessation of treatment ([1]; treatment stopped day 21, depilated again day 28, assessed day 35) | IC50 [2] [nM] | IC50 [3] [nM] | IC50 [4] [nM] | IC50 [5] [nM] | IC50 [6] [nM] | IC50 [7] [nM] | IC50 (Kit) [nM] | Loss of activity, V560D/V654A double mutant compared with V560D alone (Kit V560D/V654A mutant) | Hair depigmentation [8]
CC1(C)CNc2cc(NC(=O)c3cccnc3NCc3ccncc3)ccc21 [Motesanib] | neither motesanib nor imatinib inhibited | 84 | markedly depigmented | no apparent depigmentation | 91 | 0.4 | 11 | 180 | 3 | 62 | […] | fifteen-fold loss | 
CCN(CC)CCNC(=O)c1c(C)[nH]c(/C=C2\C(=O)Nc3ccc(F)cc32)c1C [sunitinib] |  |  |  |  |  |  |  |  |  |  |  |  | Depigmentation has previously been observed
